{"source": "patent US9757393B2", "about": "(priority 2015, dated 2017)", "key": {"[1]": {"system": "apo A-I mRNA", "test": "Semiquantitative RT-PCR, liver tissue: apo A-I", "format": "in vivo, C57BL/6J mice", "conditions": "HFD-fed mice", "protocol": "(§1) Experimental Animals: the experiments are conducted under the guidelines of the Institutional Animal Care and Use Committee of Central Taiwan University of Science and Technology. As previously described, four-week-old male C57BL/6J mice (n=63) is purchased from the National Laboratory Animal Breeding and Research Center, Ministry of Science and Technology. After 1-week of acclimatization, mice are designed to initiate the study, and the study lasts for 12 weeks. […] The CON group and high-fat control (HF) group are given with vehicle only. The low-fat diet consisted of fat 10%, whereas the high-fat diet (HFD) consisted of fat 45% (of total energy, % kcal). The compositions of the experimental diets are shown as described. At the end of the study, food is derived from the animals (from 10 p.m. to 10 a.m.). On the next day, the mice are sacrificed, and blood and tissue are collected for analysis. Livers, skeletal muscles, and white adipose tissues (WATs) (including epididymal, mesenteric and retroperitoneal WAT) are excised and weighed, and then immediately stored in a freezer at −80° C. Heparin (30 units/mL) (Sigma) is added to blood samples. Plasma samples are collected by centrifugation at 1600 g for 15 min at 4° C. within 30 min, and plasma is obtained for insulin and leptin level analysis.\n(§2) The experiment is performed as in a previously described protocol. Total RNA from the liver tissue is isolated with a Trizol reagent (Molecular Research Center, Inc., Cincinnati, Ohio, USA) according to the manufacturer's directions. Total RNA (1 μg) is reverse transcribed to cDNA with 5 μL of Moloney murine leukemia virus reverse transcriptase (Epicenter, Madison, Wis., USA) as a previously described protocol. […] The relative density of the band is evaluated using AlphaDigiDoc 1201 software (Alpha Innotech Co., San Leandro, Calif., USA). All of the measured PCR products are normalized to the amount of cDNA of GAPDH in each sample."}, "[2]": {"system": "phospho-AMPK (Thr172)", "test": "Western blotting of phospho-AMPK (Thr172) in liver tissue and skeletal muscle", "format": "in vivo, C57BL/6J mice", "conditions": "HFD-fed mice", "protocol": "as §1\nProtein extractions and immunoblots for the determination of membrane GLUT4, phospho-AMPK (Thr172), and phospho-Akt (Ser 473) proteins are carried out on frozen skeletal muscle and liver tissue from mice, which follows a previous paper. Additionally, membrane GLUT4 is carried out on frozen skeletal muscle from mice, and the total membrane fractions are collected with buffer and centrifuged as a previously described. The protein contents of membrane GLUT4, phospho-AMPK, phospho-Akt, total AMPK, and total Akt are detected by western blotting. Western blotting has been determined as described elsewhere. Subsequently, antibodies are detected using horseradish peroxidase linked to a goat anti-IgG rabbit secondary antibody and visualized using an ECL system. Membrane GLUT4, structural proteins GAPDH and β-actin are purchased from Santa Cruz Biotechnology (Santa Cruz, Calif., USA); phospho-AMPK was obtained from Abcam Inc. (Cambridge, Mass., USA); phospho-Akt, total AMPK, and total Akt are from Cell Signaling Technology, Inc. (Danver Mass., USA); the BCA protein assay kit is from Thermo Scientific (Rockford, Ill., USA); and the ECL reagent kit is from GE Healthcare BioSciences (Buckinghamshire, UK). The secondary antibody antirabbit is from Jackson ImmunoResearch Laboratories, Inc. (West Grove, Pa., USA). The density blotting is analyzed using Alpha Easy FC software (Alpha Innotech Corp., Randburg, South Africa). Structural proteins GAPDH and β-actin are obtained by stripping the nitrocellulose membrane proteins of liver and skeletal muscle, respectively."}, "[3]": {"system": "apo C-III mRNA", "test": "Semiquantitative RT-PCR, liver tissue: apo C-III", "format": "in vivo, C57BL/6J mice", "conditions": "HFD-fed mice", "protocol": "as §1, §2"}, "[4]": {"system": "HFD-fed C57BL/6J mice", "test": "Hepatic lipid in HFD-fed mice", "format": "in vivo", "conditions": "oral gavage daily for 4 weeks", "protocol": "as §1\nBlood Lipid and Hepatic Lipid. Hepatic lipids are extracted as previously described. Liver sample (0.375 g) is homogenized with 1 mL of distilled water for 5 min for the hepatic lipid extraction and analyzed using a triglycerides kit as used for serum lipids."}, "[5]": {"system": "SREBP1c mRNA", "test": "Semiquantitative RT-PCR, liver tissue: SREBP1c", "format": "in vivo, C57BL/6J mice", "conditions": "HFD-fed mice", "protocol": "as §1, §2"}, "[6]": {"system": "HFD-fed C57BL/6J mice", "test": "Histopathology examination of epididymal WAT and liver tissue", "format": "in vivo", "conditions": "for ballooning degeneration of hepatocyte: liver tissue; for average area of adipocytes (epididymal WAT): oral gavage daily for 4 weeks", "protocol": "as §1\nA portion of the collected epididymal WAT and liver tissue is fixed with formalin (200 g/kg) neutral buffered solution and embedded in paraffin. Sections (8 μm) are cut and stained with hematoxylin and eosin. A microscope (Leica, DM2500) and Leica Digital camera (DFC-425-C) are used for microscopic examination and images taken, respectively."}, "[7]": {"system": "phospho-Akt (Ser 473)/total Akt", "test": "Western blotting of phospho-Akt (Ser 473)/total Akt", "format": "in vivo, C57BL/6J mice", "conditions": "HFD-fed mice, vs HF mice", "protocol": "as §1\nProtein extractions and immunoblots for the determination of membrane GLUT4, phospho-AMPK (Thr172), and phospho-Akt (Ser 473) proteins are carried out on frozen skeletal muscle and liver tissue from mice, which follows a previous paper. […] The protein contents of membrane GLUT4, phospho-AMPK, phospho-Akt, total AMPK, and total Akt are detected by western blotting. Western blotting has been determined as described elsewhere. Subsequently, antibodies are detected using horseradish peroxidase linked to a goat anti-IgG rabbit secondary antibody and visualized using an ECL system. […] The density blotting is analyzed using Alpha Easy FC software (Alpha Innotech Corp., Randburg, South Africa). […]"}, "[8]": {"system": "G6 Pase mRNA", "test": "Semiquantitative RT-PCR, liver tissue: G6 Pase", "format": "in vivo, C57BL/6J mice", "conditions": "HFD-fed mice", "protocol": "as §1, §2"}, "[9]": {"system": "adiponectin mRNA", "test": "Semiquantitative RT-PCR, liver tissue: adiponectin", "format": "in vivo, C57BL/6J mice", "conditions": "HFD-fed mice, 40 mg/kg/day", "protocol": "as §1, with “Heparin (30 units/mL) (Sigma) is added to blood samples. Plasma samples are collected by centrifugation at 1600 g for 15 min at 4° C. within 30 min, and plasma is obtained for insulin and leptin level analysis.” left out\nThe experiment is performed as in a previously described protocol. […] The relative density of the band is evaluated using AlphaDigiDoc 1201 software (Alpha Innotech Co., San Leandro, Calif., USA). All of the measured PCR products are normalized to the amount of cDNA of GAPDH in each sample."}, "[10]": {"system": "PPARα mRNA", "test": "Semiquantitative RT-PCR, liver tissue: PPARα", "format": "in vivo, C57BL/6J mice", "conditions": "HFD-fed mice", "protocol": "as §1, §2"}, "[11]": {"system": "SREBP2 mRNA", "test": "Semiquantitative RT-PCR, liver tissue: SREBP2", "format": "in vivo, C57BL/6J mice", "conditions": "HFD-fed mice", "protocol": "as §1, §2"}}, "data": [{"smiles": "CC(C)[C@@H](C)C=C[C@@H](C)[C@H]1CC[C@H]2C3=CCC4C[C@@H](O)CC[C@]4(C)C3=CC[C@]12C", "note": "(stereo partly drawn) [ergostatrien-3β-ol, ergosta-7,9(11),22-trien-3β-ol]", "values": [{"measurement": "mRNA levels of apolipoprotein A-I (apo A-I)", "setting": "[1]; 10 mg/kg/day", "result": "increased"}, {"measurement": "mRNA levels of apolipoprotein A-I (apo A-I)", "setting": "[1]; 20 mg/kg/day", "result": "increased"}, {"measurement": "mRNA levels of apolipoprotein A-I (apo A-I)", "setting": "[1]; 40 mg/kg/day", "result": "increased"}, {"measurement": "protein contents of phospho-AMPK", "setting": "[2]; liver tissue, 10 mg/kg/day", "result": "significantly increased"}, {"measurement": "protein contents of phospho-AMPK", "setting": "[2]; liver tissue, 20 mg/kg/day", "result": "significantly increased"}, {"measurement": "protein contents of phospho-AMPK", "setting": "[2]; liver tissue, 40 mg/kg/day", "result": "significantly increased"}, {"measurement": "protein contents of phospho-AMPK", "setting": "[2]; skeletal muscle, 10 mg/kg/day", "result": "significantly increased"}, {"measurement": "protein contents of phospho-AMPK", "setting": "[2]; skeletal muscle, 20 mg/kg/day", "result": "significantly increased"}, {"measurement": "protein contents of phospho-AMPK", "setting": "[2]; skeletal muscle, 40 mg/kg/day", "result": "significantly increased"}, {"measurement": "mRNA level of apo C-III", "setting": "[3]; 10 mg/kg/day", "result": "decreased"}, {"measurement": "mRNA level of apo C-III", "setting": "[3]; 20 mg/kg/day", "result": "decreased"}, {"measurement": "mRNA level of apo C-III", "setting": "[3]; 40 mg/kg/day", "result": "decreased"}, {"measurement": "Liver Lipids total lipid", "setting": "[4]; 10 mg/kg/day", "result": "72.4 ± 3.7", "unit": "mg/g"}, {"measurement": "Liver Lipids triacylglycerol", "setting": "[4]; 10 mg/kg/day", "result": "57.3 ± 5.5", "unit": "µmol/g"}, {"measurement": "Liver Lipids total lipid", "setting": "[4]; 20 mg/kg/day", "result": "68.0 ± 4.5", "unit": "mg/g"}, {"measurement": "Liver Lipids triacylglycerol", "setting": "[4]; 20 mg/kg/day", "result": "44.5 ± 4.7", "unit": "µmol/g"}, {"measurement": "Liver Lipids total lipid", "setting": "[4]; 40 mg/kg/day", "result": "65.4 ± 4.2", "unit": "mg/g"}, {"measurement": "Liver Lipids triacylglycerol", "setting": "[4]; 40 mg/kg/day", "result": "43.7 ± 6.6", "unit": "µmol/g"}, {"measurement": "mRNA level of SREBP1c", "setting": "[5]; 10 mg/kg/day", "result": "decreased"}, {"measurement": "mRNA level of SREBP1c", "setting": "[5]; 20 mg/kg/day", "result": "decreased"}, {"measurement": "mRNA level of SREBP1c", "setting": "[5]; 40 mg/kg/day", "result": "decreased"}, {"measurement": "ballooning degeneration of hepatocyte", "setting": "[6]; 10 mg/kg/day", "result": "decreases"}, {"measurement": "ballooning degeneration of hepatocyte", "setting": "[6]; 20 mg/kg/day", "result": "decreases"}, {"measurement": "ballooning degeneration of hepatocyte", "setting": "[6]; 40 mg/kg/day", "result": "decreases"}, {"measurement": "average area of adipocytes (epididymal WAT)", "setting": "[6]; 10 mg/kg/day", "result": "4204.0±131.5", "unit": "μm2"}, {"measurement": "average area of adipocytes (epididymal WAT)", "setting": "[6]; 20 mg/kg/day", "result": "3535.7±340.2", "unit": "μm2"}, {"measurement": "average area of adipocytes (epididymal WAT)", "setting": "[6]; 40 mg/kg/day", "result": "3458.9±30.7", "unit": "μm2"}, {"measurement": "levels of phospho-Akt/total Akt", "setting": "[7]; 10 mg/kg/day", "result": "higher"}, {"measurement": "levels of phospho-Akt/total Akt", "setting": "[7]; 20 mg/kg/day", "result": "higher"}, {"measurement": "levels of phospho-Akt/total Akt", "setting": "[7]; 40 mg/kg/day", "result": "higher"}, {"measurement": "mRNA level of G6 Pase", "setting": "[8]; 10 mg/kg/day", "result": "decreased"}, {"measurement": "mRNA level of G6 Pase", "setting": "[8]; 20 mg/kg/day", "result": "decreased"}, {"measurement": "mRNA level of G6 Pase", "setting": "[8]; 40 mg/kg/day", "result": "decreased"}, {"measurement": "mRNA level of adiponectin", "setting": "[9]", "result": "increase"}, {"measurement": "mRNA level of PPARα", "setting": "[10]; 10 mg/kg/day", "result": "increase"}, {"measurement": "mRNA level of PPARα", "setting": "[10]; 20 mg/kg/day", "result": "increase"}, {"measurement": "mRNA level of PPARα", "setting": "[10]; 40 mg/kg/day", "result": "increase"}, {"measurement": "mRNA level of SREBP2", "setting": "[11]; 10 mg/kg/day", "result": "decreased"}, {"measurement": "mRNA level of SREBP2", "setting": "[11]; 20 mg/kg/day", "result": "decreased"}, {"measurement": "mRNA level of SREBP2", "setting": "[11]; 40 mg/kg/day", "result": "decreased"}]}]}
